Data from ChEMBL document CHEMBL1201862, “PubChem BioAssay data set” (2004).
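Grown in 96-well plates, cells were treated for 48 hours with each compound at five concentrations. Insufficient inhibition: endpoint recorded as highest concentration tested. Here, GI50 denotes the concentration required for 50% inhibition of growth.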 Calls of active or inactive are those of the source. No stated cut-off is given here; in the data, active = GI50 up to about 1.1 µM and inactive = higher.

What was measured:
Assay in all cases: NCI tumour cell line growth inhibition, 48 h
786-0 = tested on: 786-0
A498 = tested on: A498
A549 = tested on: A549
BT-549 = tested on: BT-549
CAKI-1 = tested on: CAKI-1
COLO 205 = tested on: COLO 205
DU-145 = tested on: DU-145
EKVX = tested on: EKVX
HCC 2998 = tested on: HCC 2998
HCT-116 = tested on: HCT-116
HCT-15 = tested on: HCT-15
HL-60 = tested on: HL-60
HOP-92 = tested on: HOP-92
HT-29 = tested on: HT-29
Hs-578T = tested on: Hs-578T
IGROV-1 = tested on: IGROV-1
K562 = tested on: K562
KM12 = tested on: KM12
LOX IMVI = tested on: LOX IMVI
M14 = tested on: M14
MCF7 = tested on: MCF7
MDA-MB-231 = tested on: MDA-MB-231
MDA-MB-435 = tested on: MDA-MB-435
MDA-N = tested on: MDA-N
MOLT-4 = tested on: MOLT-4
Malme-3M = tested on: Malme-3M
NCI-H226 = tested on: NCI-H226
NCI-H23 = tested on: NCI-H23
NCI-H460 = tested on: NCI-H460
NCI-H522 = tested on: NCI-H522
NCI/ADR-RES = tested on: NCI/ADR-RES
OVCAR-3 = tested on: OVCAR-3
OVCAR-4 = tested on: OVCAR-4
OVCAR-5 = tested on: OVCAR-5
OVCAR-8 = tested on: OVCAR-8
PC-3 = tested on: PC-3
RPMI-8226 = tested on: RPMI-8226
RXF 393 = tested on: RXF 393
SF-268 = tested on: SF-268
SF-539 = tested on: SF-539
SK-MEL-28 = tested on: SK-MEL-28
SK-MEL-2 = tested on: SK-MEL-2
SK-MEL-5 = tested on: SK-MEL-5
SK-OV-3 = tested on: SK-OV-3
SN12C = tested on: SN12C
SNB-19 = tested on: SNB-19
SNB-75 = tested on: SNB-75
SR = tested on: SR
SW-620 = tested on: SW-620
T47D = tested on: T47D
TK-10 = tested on: TK-10
U-251 = tested on: U-251
UACC-257 = tested on: UACC-257
UACC-62 = tested on: UACC-62
UO-31 = tested on: UO-31
ACHN = tested on: ACHN
CCRF-CEM = tested on: CCRF-CEM
HOP-62 = tested on: HOP-62
SF-295 = tested on: SF-295

N#Cc1c(O)n(-c2ccccc2)c(=O)c2c(N)n[nH]c12
GI50 (786-0): > 100 µM (inactive) | GI50 (A498): > 100 µM (inactive) | GI50 (A549): > 100 µM (inactive) | GI50 (BT-549): > 100 µM (inactive) | GI50 (CAKI-1): 95.1 µM (inactive) | GI50 (COLO 205): > 100 µM (inactive) | GI50 (DU-145): > 100 µM (inactive) | GI50 (EKVX): > 100 µM (inactive) | GI50 (HCC 2998): > 100 µM (inactive) | GI50 (HCT-116): > 100 µM (inactive) | GI50 (HCT-15): > 100 µM | GI50 (HL-60): > 100 µM (inactive) | GI50 (HOP-92): > 100 µM (inactive) | GI50 (HT-29): > 100 µM (inactive) | GI50 (Hs-578T): > 100 µM (inactive) | GI50 (IGROV-1): > 100 µM (inactive) | GI50 (K562): 56.4 µM (inactive) | GI50 (KM12): 42.4 µM (inactive) | GI50 (LOX IMVI): 21.5 µM (inactive) | GI50 (M14): > 100 µM (inactive) | GI50 (MCF7): > 100 µM (inactive) | GI50 (MDA-MB-231): > 100 µM (inactive) | GI50 (MDA-MB-435): > 100 µM (inactive) | GI50 (MDA-N): > 100 µM (inactive) | GI50 (MOLT-4): > 100 µM (inactive) | GI50 (Malme-3M): > 100 µM (inactive) | GI50 (NCI-H226): > 100 µM (inactive) | GI50 (NCI-H23): > 100 µM (inactive) | GI50 (NCI-H460): > 100 µM (inactive) | GI50 (NCI-H522): 69.8 µM (inactive) | GI50 (NCI/ADR-RES): > 100 µM (inactive) | GI50 (OVCAR-3): > 100 µM (inactive) | GI50 (OVCAR-4): > 100 µM (inactive) | GI50 (OVCAR-5): > 100 µM (inactive) | GI50 (OVCAR-8): > 100 µM (inactive) | GI50 (PC-3): > 100 µM (inactive) | GI50 (RPMI-8226): > 100 µM (inactive) | GI50 (RXF 393): > 100 µM (inactive) | GI50 (SF-268): > 100 µM (inactive) | GI50 (SF-539): > 100 µM (inactive) | GI50 (SK-MEL-28): > 100 µM (inactive) | GI50 (SK-MEL-2): > 100 µM (inactive) | GI50 (SK-MEL-5): > 100 µM (inactive) | GI50 (SK-OV-3): > 100 µM (inactive) | GI50 (SN12C): > 100 µM (inactive) | GI50 (SNB-19): > 100 µM (inactive) | GI50 (SNB-75): > 100 µM (inactive) | GI50 (SR): > 100 µM (inactive) | GI50 (SW-620): 64.9 µM (inactive) | GI50 (T47D): > 100 µM (inactive) | GI50 (TK-10): > 100 µM (inactive) | GI50 (U-251): > 100 µM (inactive) | GI50 (UACC-257): > 100 µM (inactive) | GI50 (UACC-62): 31.3 µM (inactive) | GI50 (UO-31): > 100 µM (inactive)

CCN(CC)CCNc1ccc2ncn3c4c(OC)ccc(O)c4c(=O)c1c23
GI50 (786-0): 8.93 µM (inactive) | GI50 (A498): 10 µM (inactive) | GI50 (A549): 2.86 µM (inactive) | GI50 (ACHN): 5.94 µM (inactive) | GI50 (BT-549): 37.3 µM (inactive) | GI50 (CAKI-1): 32.1 µM (inactive) | GI50 (CCRF-CEM): 4.12 µM (inactive) | GI50 (COLO 205): 5.87 µM (inactive) | GI50 (DU-145): 19.3 µM (inactive) | GI50 (EKVX): 46.8 µM (inactive) | GI50 (HCC 2998): 5.25 µM (inactive) | GI50 (HCT-116): 1.16 µM (inactive) | GI50 (HCT-15): 3.63 µM | GI50 (HL-60): 30.8 µM (inactive) | GI50 (HOP-62): 15.4 µM (inactive) | GI50 (HOP-92): 2.74 µM (inactive) | GI50 (HT-29): 7.4 µM (inactive) | GI50 (Hs-578T): 92.5 µM (inactive) | GI50 (IGROV-1): 5.56 µM (inactive) | GI50 (K562): 8.13 µM (inactive) | GI50 (KM12): 8.17 µM (inactive) | GI50 (M14): 13.6 µM (inactive) | GI50 (MCF7): 3.52 µM (inactive) | GI50 (MDA-MB-231): 13.7 µM (inactive) | GI50 (MDA-MB-435): 24.9 µM (inactive) | GI50 (MDA-N): 21.1 µM (inactive) | GI50 (MOLT-4): 0.625 µM (active) | GI50 (Malme-3M): 19.4 µM (inactive) | GI50 (NCI-H226): 45.8 µM (inactive) | GI50 (NCI-H23): 21.8 µM (inactive) | GI50 (NCI-H460): 0.764 µM (active) | GI50 (NCI-H522): 1.41 µM (inactive) | GI50 (NCI/ADR-RES): 2.54 µM (inactive) | GI50 (OVCAR-3): 31.2 µM (inactive) | GI50 (OVCAR-4): 6.21 µM (inactive) | GI50 (OVCAR-5): 42.4 µM (inactive) | GI50 (OVCAR-8): 6.93 µM (inactive) | GI50 (PC-3): 10.9 µM (inactive) | GI50 (RPMI-8226): 4.21 µM (inactive) | GI50 (RXF 393): 5.85 µM (inactive) | GI50 (SF-268): 6.49 µM (inactive) | GI50 (SF-295): 16.6 µM (inactive) | GI50 (SF-539): 6.98 µM (inactive) | GI50 (SK-MEL-28): 12.3 µM (inactive) | GI50 (SK-MEL-2): > 100 µM (inactive) | GI50 (SK-MEL-5): 9.51 µM (inactive) | GI50 (SK-OV-3): 66.2 µM (inactive) | GI50 (SN12C): 4.82 µM (inactive) | GI50 (SNB-19): 19.6 µM (inactive) | GI50 (SNB-75): 46.3 µM (inactive) | GI50 (SR): 1.63 µM (inactive) | GI50 (SW-620): 3.09 µM (inactive) | GI50 (T47D): > 100 µM (inactive) | GI50 (TK-10): 33 µM (inactive) | GI50 (U-251): 12.6 µM (inactive) | GI50 (UACC-257): > 100 µM (inactive) | GI50 (UACC-62): 35.7 µM (inactive) | GI50 (UO-31): 33.7 µM (inactive)
